What was measured:
[1] = target: Prostaglandin G/H synthase 1 (Homo sapiens, UniProt P23219); assay: biochemical; format: tissue-based, Platelet;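 also: inhibition of COX-1 enzyme activity, with arachidonic acid supplied as substrate; in other assays of this panel Not Active means under 50% inhibition at 10 µM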
[2] = DRUGMATRIX: Interleukin IL-1 radioligand binding (ligand: [125I] interleukin 1beta); format: cell membranes, Membrane; settings: nih3t3; Not Active = under 50% inhibition at 10 µM
[3] = target: Vascular endothelial growth factor receptor 1 (Homo sapiens, UniProt P17948); assay: biochemical; format: cell-based, HUVEC; settings: huvec; also: in other assays of this panel Not Active means under 50% inhibition at 10 µM
[4] = target: Beta-2 adrenergic receptor (Homo sapiens, UniProt P07550); assay: DRUGMATRIX: Adrenergic beta2 radioligand binding (ligand: [3H] CGP-12177); format: cell membranes, CHO, Membrane; settings: cho; Not Active = under 50% inhibition at 10 µM
[5] = target: T1, 3-hydroxy-3-methylglutaryl-coenzyme A reductase (Homo sapiens, UniProt P04035); parameters: species or system Escherichia coli;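 also: enzyme inhibition assay of HMG-CoA reductase using radiolabeled [14C]HMG-CoA as substrate; in other assays of this panel Not Active means under 50% inhibition at 10 µM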
T1 sequence (P04035 whole entry): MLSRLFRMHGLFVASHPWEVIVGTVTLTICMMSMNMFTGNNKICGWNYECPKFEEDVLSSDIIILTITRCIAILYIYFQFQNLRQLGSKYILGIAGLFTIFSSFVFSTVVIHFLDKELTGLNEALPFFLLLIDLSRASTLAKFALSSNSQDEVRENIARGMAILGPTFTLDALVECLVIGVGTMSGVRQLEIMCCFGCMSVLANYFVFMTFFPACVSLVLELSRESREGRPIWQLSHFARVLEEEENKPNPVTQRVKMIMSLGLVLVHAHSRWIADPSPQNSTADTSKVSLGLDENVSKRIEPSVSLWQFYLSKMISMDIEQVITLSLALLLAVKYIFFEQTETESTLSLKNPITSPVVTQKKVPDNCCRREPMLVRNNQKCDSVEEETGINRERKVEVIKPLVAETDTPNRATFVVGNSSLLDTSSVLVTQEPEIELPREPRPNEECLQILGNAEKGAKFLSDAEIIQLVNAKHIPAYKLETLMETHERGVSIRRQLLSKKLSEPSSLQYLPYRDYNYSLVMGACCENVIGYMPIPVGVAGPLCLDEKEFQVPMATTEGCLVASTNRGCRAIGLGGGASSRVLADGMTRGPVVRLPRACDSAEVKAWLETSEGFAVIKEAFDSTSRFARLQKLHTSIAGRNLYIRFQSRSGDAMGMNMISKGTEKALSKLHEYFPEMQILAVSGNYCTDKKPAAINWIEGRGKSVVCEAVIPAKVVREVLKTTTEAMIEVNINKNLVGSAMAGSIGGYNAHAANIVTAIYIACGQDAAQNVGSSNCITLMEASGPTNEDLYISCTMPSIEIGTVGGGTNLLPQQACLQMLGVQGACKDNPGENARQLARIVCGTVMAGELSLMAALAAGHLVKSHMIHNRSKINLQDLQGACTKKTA

[6] = target: T2, Type-2 angiotensin II receptor (Homo sapiens, UniProt P50052); format: cell-based; settings: cho-k1; also: in other assays of this panel Not Active means under 50% inhibition at 10 µM
T2 sequence (P50052 whole entry): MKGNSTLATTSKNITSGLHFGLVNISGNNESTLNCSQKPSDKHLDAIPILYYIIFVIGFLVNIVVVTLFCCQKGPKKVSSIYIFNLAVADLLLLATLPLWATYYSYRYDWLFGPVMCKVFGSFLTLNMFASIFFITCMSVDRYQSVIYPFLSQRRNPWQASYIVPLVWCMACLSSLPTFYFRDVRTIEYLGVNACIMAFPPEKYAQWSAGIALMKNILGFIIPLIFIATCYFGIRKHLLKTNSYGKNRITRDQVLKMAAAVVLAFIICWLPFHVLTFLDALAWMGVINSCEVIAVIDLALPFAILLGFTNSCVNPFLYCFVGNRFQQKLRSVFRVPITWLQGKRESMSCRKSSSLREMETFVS

[7] = target: Beta-1 adrenergic receptor (Homo sapiens, UniProt P08588); assay: DRUGMATRIX: Adrenergic beta1 radioligand binding (ligand: [125I] Cyanopindolol); format: cell membranes, CHO-K1, Membrane; settings: cho-k1; Not Active = under 50% inhibition at 10 µM
[8] = DRUGMATRIX: Calcium Channel Type L, Benzothiazepine radioligand binding (ligand: [3H] Diltiazem); format: cell membranes, Rattus norvegicus, Wistar, Brain, Membrane; settings: Not Active = under 50% inhibition at 10 µM

Sequence of Vascular endothelial growth factor receptor 1 (P17948 whole entry): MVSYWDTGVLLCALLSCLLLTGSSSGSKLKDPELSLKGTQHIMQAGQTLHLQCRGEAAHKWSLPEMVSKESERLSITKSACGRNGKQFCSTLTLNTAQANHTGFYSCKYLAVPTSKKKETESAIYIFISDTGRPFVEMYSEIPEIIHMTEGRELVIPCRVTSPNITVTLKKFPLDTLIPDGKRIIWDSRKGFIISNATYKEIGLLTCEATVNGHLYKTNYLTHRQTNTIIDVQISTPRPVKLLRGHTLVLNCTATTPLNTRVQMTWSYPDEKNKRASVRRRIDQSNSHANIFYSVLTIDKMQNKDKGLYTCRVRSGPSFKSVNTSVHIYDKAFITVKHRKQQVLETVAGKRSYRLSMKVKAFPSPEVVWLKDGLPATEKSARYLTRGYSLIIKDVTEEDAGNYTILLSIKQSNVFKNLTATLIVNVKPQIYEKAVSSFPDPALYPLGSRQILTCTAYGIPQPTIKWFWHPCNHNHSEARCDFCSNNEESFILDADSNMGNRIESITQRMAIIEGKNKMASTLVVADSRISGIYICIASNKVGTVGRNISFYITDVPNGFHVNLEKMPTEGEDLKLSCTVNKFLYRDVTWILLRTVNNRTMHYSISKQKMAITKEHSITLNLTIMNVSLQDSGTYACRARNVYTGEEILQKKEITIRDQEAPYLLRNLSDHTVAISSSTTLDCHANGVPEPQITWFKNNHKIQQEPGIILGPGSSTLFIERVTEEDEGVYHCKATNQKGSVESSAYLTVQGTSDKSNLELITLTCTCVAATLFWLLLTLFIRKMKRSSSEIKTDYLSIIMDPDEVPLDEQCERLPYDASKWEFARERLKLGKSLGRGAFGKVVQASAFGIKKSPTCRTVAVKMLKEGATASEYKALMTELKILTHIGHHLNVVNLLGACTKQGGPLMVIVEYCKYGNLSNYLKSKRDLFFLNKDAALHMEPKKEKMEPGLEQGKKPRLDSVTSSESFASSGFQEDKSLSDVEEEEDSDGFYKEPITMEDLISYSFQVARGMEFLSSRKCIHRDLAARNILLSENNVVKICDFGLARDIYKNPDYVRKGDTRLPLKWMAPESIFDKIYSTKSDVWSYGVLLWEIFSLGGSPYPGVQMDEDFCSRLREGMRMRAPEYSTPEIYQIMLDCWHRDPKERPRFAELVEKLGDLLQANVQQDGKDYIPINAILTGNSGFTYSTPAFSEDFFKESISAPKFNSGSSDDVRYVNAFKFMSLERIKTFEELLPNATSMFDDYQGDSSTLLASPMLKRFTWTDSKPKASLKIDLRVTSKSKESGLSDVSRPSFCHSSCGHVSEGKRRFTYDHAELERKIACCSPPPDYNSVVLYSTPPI
Sequence of Beta-1 adrenergic receptor (P08588 whole entry): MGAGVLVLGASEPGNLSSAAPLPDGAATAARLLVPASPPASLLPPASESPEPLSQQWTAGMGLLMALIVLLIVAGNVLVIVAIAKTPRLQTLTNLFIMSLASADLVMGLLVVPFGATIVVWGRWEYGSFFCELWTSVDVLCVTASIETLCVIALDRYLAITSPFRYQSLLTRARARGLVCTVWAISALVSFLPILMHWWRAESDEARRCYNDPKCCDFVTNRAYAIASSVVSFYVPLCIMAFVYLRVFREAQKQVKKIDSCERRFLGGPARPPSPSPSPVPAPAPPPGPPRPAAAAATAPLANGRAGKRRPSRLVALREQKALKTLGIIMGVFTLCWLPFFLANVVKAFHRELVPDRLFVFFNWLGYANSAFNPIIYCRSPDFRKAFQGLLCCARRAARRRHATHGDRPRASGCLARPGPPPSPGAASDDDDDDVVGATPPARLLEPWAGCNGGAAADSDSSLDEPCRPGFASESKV
Sequence of Beta-2 adrenergic receptor (P07550 whole entry): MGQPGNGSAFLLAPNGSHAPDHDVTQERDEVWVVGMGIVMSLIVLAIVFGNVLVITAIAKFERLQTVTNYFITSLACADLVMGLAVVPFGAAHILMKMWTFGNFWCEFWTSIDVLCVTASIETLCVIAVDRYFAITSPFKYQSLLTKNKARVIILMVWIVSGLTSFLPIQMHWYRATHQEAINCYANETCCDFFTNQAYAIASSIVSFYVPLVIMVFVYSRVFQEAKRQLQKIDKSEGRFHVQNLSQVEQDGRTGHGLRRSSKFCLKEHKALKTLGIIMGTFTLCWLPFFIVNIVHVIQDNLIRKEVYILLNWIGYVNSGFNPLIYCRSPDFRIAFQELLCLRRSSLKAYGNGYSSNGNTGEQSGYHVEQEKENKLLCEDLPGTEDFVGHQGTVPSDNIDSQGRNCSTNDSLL
Sequence of Prostaglandin G/H synthase 1 (P23219 whole entry): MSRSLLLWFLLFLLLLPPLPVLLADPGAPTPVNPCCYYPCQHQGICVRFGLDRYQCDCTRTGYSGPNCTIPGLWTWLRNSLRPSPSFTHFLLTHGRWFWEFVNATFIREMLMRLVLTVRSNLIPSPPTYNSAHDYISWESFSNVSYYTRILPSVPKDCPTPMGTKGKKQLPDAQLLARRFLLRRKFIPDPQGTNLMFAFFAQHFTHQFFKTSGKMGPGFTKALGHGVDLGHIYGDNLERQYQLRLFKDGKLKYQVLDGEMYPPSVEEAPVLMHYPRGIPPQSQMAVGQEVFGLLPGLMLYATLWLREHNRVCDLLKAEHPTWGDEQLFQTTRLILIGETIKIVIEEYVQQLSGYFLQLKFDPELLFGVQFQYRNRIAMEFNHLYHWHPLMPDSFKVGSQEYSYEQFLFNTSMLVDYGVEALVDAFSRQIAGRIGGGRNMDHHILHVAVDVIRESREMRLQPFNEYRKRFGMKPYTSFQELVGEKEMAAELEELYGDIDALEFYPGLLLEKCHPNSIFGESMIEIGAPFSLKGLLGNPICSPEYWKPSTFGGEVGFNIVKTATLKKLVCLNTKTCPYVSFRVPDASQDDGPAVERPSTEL

Compound | IC50 ([1]; platelet) | IC50 [2] | Ki [2] | IC50 [3] | IC50 [4] | IC50 [5] | IC50 [6] | IC50 [7] | IC50 [8] | Ki [8] | IC50 ([1]; read-out: IC50)
CCN1CCC[C@H]1CNC(=O)c1cc(S(N)(=O)=O)ccc1OC [LEVOSULPIRIDE] | Not Active | Not Active | Not Active | Not Active | Not Active | Not Active | Not Active | Not Active | Not Active | Not Active | –
CCN(CC)CC(=O)Nc1c(C)cccc1C [LIDOCAINE] | Not Active | Not Active | Not Active | Not Active | Not Active | Not Active | Not Active | Not Active | Not Active | Not Active | –
O=C1Nc2ccc(Cl)cc2C(c2ccccc2Cl)=NC1O (stereo not given) [LORAZEPAM] | Not Active | Not Active | Not Active | Not Active | Not Active | Not Active | Not Active | Not Active | Not Active | Not Active | –
CO[C@@H]1[C@@H](OC)[C@H](C)[C@@](O)(CC(=O)O)O[C@H]1[C@H](C)[C@H]1O[C@@]2(CC[C@@](C)([C@H]3CC[C@@](C)([C@@H]4O[C@@H]([C@H]5O[C@](C)(O)[C@H](C)C[C@@H]5C)C[C@@H]4O[C@@H]4C[C@H](OC)[C@@H](OC)[C@H](C)O4)O3)O2)C[C@H](O)[C@H]1C [MADURAMICIN ACID] | Not Active | Not Active | Not Active | Not Active | Not Active | Not Active | Not Active | Not Active | Not Active | Not Active | –
COc1c2occc2cc2ccc(=O)oc12 [METHOXSALEN] | Not Active | Not Active | Not Active | Not Active | Not Active | Not Active | Not Active | Not Active | Not Active | Not Active | –
C[C@H]1C[C@@H]2[C@H]([C@@H](O)C[C@@]3(C)[C@H]2CC[C@]3(O)C(=O)CO)[C@@]2(C)C=CC(=O)C=C12 [METHYLPREDNISOLONE] | Not Active | Not Active | Not Active | Not Active | Not Active | Not Active | Not Active | Not Active | Not Active | Not Active | –
Cc1cccc(C)c1OCC(C)N (stereo not given) [MEXILETINE] | Not Active | Not Active | Not Active | Not Active | Not Active | Not Active | Not Active | Not Active | Not Active | Not Active | –
Nc1cc(N2CCCCC2)nc(N)[n+]1[O-] [MINOXIDIL] | Not Active | Not Active | Not Active | Not Active | Not Active | Not Active | Not Active | Not Active | Not Active | Not Active | –
CO[C@H]1/C=C/O[C@@]2(C)Oc3c(C)c(O)c4c(O)c(c(/C=N/N5CCN(C6CCCC6)CC5)c(O)c4c3C2=O)NC(=O)/C(C)=C\C=C\[C@H](C)[C@H](O)[C@@H](C)[C@@H](O)[C@@H](C)[C@H](OC(C)=O)[C@@H]1C [RIFAPENTINE] | Not Active | Not Active | Not Active | Not Active | Not Active | Not Active | Not Active | Not Active | Not Active | Not Active | –
CCCCOc1cc(CC2CNC(=O)N2)ccc1OC (stereo not given) [RO-201724] | Not Active | Not Active | Not Active | Not Active | Not Active | Not Active | Not Active | Not Active | Not Active | Not Active | –
CC[C@@H](C(=O)[C@@H](C)[C@@H](O)[C@H](C)[C@@H]1O[C@@H]([C@@H](CC)C(=O)O)CC[C@@H]1C)[C@H]1O[C@]2(C=C[C@@H](O)[C@]3(CC[C@@](C)([C@H]4CC[C@](O)(CC)[C@H](C)O4)O3)O2)[C@H](C)C[C@@H]1C [SALINOMYCIN] | Not Active | Not Active | Not Active | Not Active | Not Active | Not Active | Not Active | Not Active | Not Active | Not Active | –
O=C(Oc1ccccc1C(=O)O)c1ccccc1O [SALSALATE] | Not Active | Not Active | Not Active | Not Active | Not Active | Not Active | Not Active | Not Active | Not Active | Not Active | –
O=C(O)c1cn(-c2ccc(F)cc2)c2cc(N3CCNCC3)c(F)cc2c1=O [SARAFLOXACIN] | Not Active | Not Active | Not Active | Not Active | Not Active | Not Active | Not Active | Not Active | Not Active | Not Active | –
O.O.O.O.O.O.[Cl-].[Cl-].[Sr+2] [STRONTIUM CHLORIDE HEXAHYDRATE] | Not Active | Not Active | Not Active | Not Active | Not Active | Not Active | Not Active | Not Active | Not Active | Not Active | –
O=C1C(CC[S+]([O-])c2ccccc2)C(=O)N(c2ccccc2)N1c1ccccc1 (stereo not given) [SULFINPYRAZONE] | Not Active | Not Active | Not Active | Not Active | Not Active | Not Active | Not Active | Not Active | Not Active | Not Active | –
NC(=O)N1C(=O)/C(=C(\O)c2cccs2)c2cc(Cl)ccc21 [TENIDAP] | – | Not Active | Not Active | Not Active | Not Active | Not Active | Not Active | Not Active | Not Active | Not Active | 55 nM
COc1cc2nc(N3CCN(C(=O)C4CCCO4)CC3)nc(N)c2cc1OC (stereo not given) [TERAZOSIN] | Not Active | Not Active | Not Active | Not Active | Not Active | Not Active | Not Active | Not Active | Not Active | Not Active | –
CN(C/C=C/C#CC(C)(C)C)Cc1cccc2ccccc12 [TERBINAFINE] | Not Active | Not Active | Not Active | Not Active | Not Active | Not Active | Not Active | Not Active | Not Active | Not Active | –
CCCCNc1ccc(C(=O)OCCN(C)C)cc1 [TETRACAINE] | Not Active | Not Active | Not Active | Not Active | Not Active | Not Active | Not Active | Not Active | Not Active | Not Active | –
Cn1c(=O)c2nc[nH]c2n(C)c1=O.O [THEOPHYLLINE] | Not Active | Not Active | Not Active | Not Active | Not Active | Not Active | Not Active | Not Active | Not Active | Not Active | –
CS(=O)(=O)c1ccc([C@@H](O)[C@@H](CO)NC(=O)C(Cl)Cl)cc1 [THIAMPHENICOL] | Not Active | Not Active | Not Active | Not Active | Not Active | Not Active | Not Active | Not Active | Not Active | Not Active | –

Source: ChEMBL document CHEMBL1909046, “DrugMatrix in vitro pharmacology data”
